Laboratory results: PMC8154581, “Discovery of Novel Thiophene-arylamide Derivatives as DprE1 Inhibitors with Potent Antimycobacterial Activities” (Journal of Medicinal Chemistry, 2021)
Converted amounts (≈) assume the structure as drawn.

What was measured:
Experiment in all cases: microbe, parasite or virus in culture
Type in all cases: cell-based
[1] = test system: M. tuberculosis clinical isolate 13946; details: Mycobacterium tuberculosis, read-out: MIC 13946
[2] = test system: M. tuberculosis clinical isolate 14862; details: Mycobacterium tuberculosis, read-out: MIC 14862
[3] = test system: bedaquiline-resistant strain of M. tuberculosis; details: Mycobacterium tuberculosis, read-out: MIC bedaquiline-resistant strain
[4] = test system: PBTZ169-resistant strain of M. tuberculosis; details: Mycobacterium tuberculosis, read-out: MIC PBTZ169-resistant strain

Structure (SMILES) | MIC [1] [µg/mL] | MIC [2] [µg/mL] | MIC [3] [µg/mL] | MIC [4] [µg/mL]
CCOC(=O)NC(=O)c1ccsc1NC(=O)c1ccc(C(=O)N2CCCCC2)c(F)c1 [Compound 24f, Ethyl (2-(3-Fluoro-4-(piperidine-1-carbonyl)benzamido)thiophene-3-carbonyl)carbamate] | 0.031 (≈ 0.0693 µM) | 0.031 (≈ 0.0693 µM) | – | –
CCOC(=O)NC(=O)c1ccsc1NC(=O)c1nc2ccccc2s1 [TCA1, reference compound] | 0.95 (≈ 2.53 µM) | 0.48 (≈ 1.28 µM) | – | –
CCOC(=O)NC(=O)c1ccsc1NC(=O)c1ccc(C(=O)N2CCCCC2)cc1 [Compound 23j, Ethyl (2-(4-(Piperidine-1-carbonyl)benzamido)thiophene-3-carbonyl)carbamate] | 0.082 (≈ 0.191 µM) | 0.059 (≈ 0.137 µM) | – | –
COc1nc2ccc(Br)cc2cc1[C@@H](c1ccccc1)[C@@](O)(CCN(C)C)c1cccc2ccccc12 [bedaquiline, reference compound] | – | – | 2.24 (≈ 4.03 µM) | –
NNC(=O)c1ccncc1 [INH, isoniazid, reference compound] | 2.46 (≈ 17.9 µM) | > 10 | – | –
COC(=O)NC(=O)c1ccsc1NC(=O)c1ccc(C(=O)N2CCCCC2)cc1 [Compound 25a, Methyl (2-(4-(Piperidine-1-carbonyl)benzamido)thiophene-3-carbonyl)carbamate] | 0.24 (≈ 0.578 µM) | 0.24 (≈ 0.578 µM) | – | –
CCOC(=O)NC(=O)c1ccsc1NC(=O)c1coc(C(=O)N2CCCCC2)c1 [Compound 24k, Ethyl (2-(5-(Piperidine-1-carbonyl)furan-3-carboxamido)thiophene-3-carbonyl)carbamate] | 0.44 (≈ 1.05 µM) | 0.23 (≈ 0.548 µM) | – | –
O=C(Nc1sccc1C(=O)Nc1nccc(C(F)(F)F)n1)c1ccc(C(=O)N2CCCCC2)cc1 [Compound 25l, 2-(4-(Piperidine-1-carbonyl)benzamido)-N-(4-(trifluoromethyl)pyrimidin-2-yl)thiophene-3-carboxamide] | 0.94 (≈ 1.87 µM) | 0.48 (≈ 0.953 µM) | – | –
O=c1nc(N2CCN(CC3CCCCC3)CC2)sc2c([N+](=O)[O-])cc(C(F)(F)F)cc12 [PBTZ169] | – | – | – | 0.005 (≈ 0.011 µM)
CCOC(=O)NC(=O)c1ccsc1NC(=O)c1ccc(C(=O)N2CCCCC2)s1 [Compound 24j, Ethyl (2-(5-(Piperidine-1-carbonyl)thiophene-2-carboxamido)thiophene-3-carbonyl)carbamate] | 0.12 (≈ 0.276 µM) | 0.12 (≈ 0.276 µM) | – | –
COC(=O)NC(=O)c1ccsc1NC(=O)c1ccc(C(=O)N2CCCCC2)c(F)c1 [Compound 25b, Methyl (2-(3-Fluoro-4-(piperidine-1-carbonyl)benzamido)thiophene-3-carbonyl)carbamate] | 0.062 (≈ 0.143 µM) | 0.12 (≈ 0.277 µM) | – | –
